System: MT901
Experiment: Intratumoral HER3-DC1 in combination with Taxol
Assay type: in vivo, mouse
Details: 30 days after tumor cells were transferred
Method: Taxol alone group received two injections of taxol. DC alone group received DCs once weekly beginning on day 5. DC+Taxol group received two injections of taxol before beginning DC treatment.
MT901, a mouse TNBC cell line, was injected in Balb/c mice and treatment began once tumors were palpable. HER3-DC1 vaccine was injected intratumorally once a week for six weeks. HER3 immune responses were measured in spleens, lymph nodes, and tumors post-vaccination. […] To investigate how the peptides would perform in the context of a therapeutic treatment of an established cancer, 5×10^5 MT901 cells were delivered to a Balb/c mouse s.c. and 5 days later weekly administration of 1×10^6 HER3 pulsed DC cells began and continued for six weeks (FIG. 8). […] To determine if the therapeutic or preventive effect could be improved in combination with an anti-cancer agent, mice were administered HER3-pulsed DC1 in combination with Taxol.

## CC(=O)O[C@H]1C(=O)[C@@]2(C)[C@H]([C@H](OC(=O)c3ccccc3)[C@]3(O)C[C@H](OC(=O)[C@H](O)[C@@H](NC(=O)c4ccccc4)c4ccccc4)C(C)=C1C3(C)C)[C@]1(OC(C)=O)CO[C@@H]1C[C@@H]2O [taxol, Paclitaxel]
  established tumors: had established tumors

— patent publication US20220370496A1, “HER3 PULSED DC1 THERAPY” (H. LEE MOFFITT CANCER CENTER AND RESEARCH INSTITUTE, INC., priority 2019, published 2022)
